Assay results published in US6686209B2, “Reagents for detecting cannabinoids” (Lifepoint, Inc., priority 2001, dated 2004).

System: antibodies against Δ^9-THC
Assay: Cross-reactivity by displacement of cannabinol-based tracer from immobilized antibody (continuous flow)
Format: binding
Settings: for MAX FI (mV): sample with 25 ng/mL of unlabeled substance, cannabinol-based tracer (FIG. 10) displaced, 0 ng/mL baseline 422; for percent cross-reactivity: 25 ng/mL
Method: The lower binding affinity of an antibody to a particular tracer may be measured by the percent cross-reactivity of the antibody to the tracer as compared to the analyte in a sample. For example, immobilized antibodies against Δ^9-THC were bound with the cannabinol-based tracer (shown in FIG. 10) similar to the methods as described in Example VII. Different samples containing 25 ng/mL of Δ^9-THC (unlabeled), Δ^8-THC (unlabeled), unlabeled 9-carboxy-Δ^9-THC (THCA), cannabidiol (unlabeled), or unlabeled cannabinol were flowed through different columns having the antibody-tracer complex to determine the amount of cross-reactivity. The amount of tracer displaced was then compared between the different samples.
Using Δ^9-THC as the standard (i.e., Δ^9-THC set at 100% cross-reactivity) (1602/1602)), 9-carboxy-Δ^9-THC has a percent cross-reactivity of about 540% (8700/1602), and cannabinol has a percent cross-reactivity of about 79% (1266/1602). If 9-carboxy-Δ^9-THC were used as the standard (i.e., 9-carboxy-Δ^9-THC set at 100% cross-reactivity (8700/8700)), then the percent cross-reactivity for cannabinol would be about 14.5% (1266/8700). If Δ^8-THC were used as a standard (i.e., A ^8-THC set at 100% cross-reactivity (1488/1488)), then the present cross-reactivity for cannabinol would be about 85% (1266/1488).

Row | Compound | MAX FI (mV) | percent cross-reactivity (9-carboxy-Δ^9-THC as the standard (100%)) | percent cross-reactivity (Δ^8-THC as the standard (100%)) | percent cross-reactivity (Δ^9-THC as the standard (100%))
1 | C=C(C)[C@@H]1CCC(C)=C[C@H]1c1c(O)cc(CCCCC)cc1O [Cannabidiol, cannabidiol] | 624 | – | – | –
2 | CCCCCc1cc(O)c2c(c1)OC(C)(C)c1ccc(C)cc1-2 [Cannabinol, 6,6,9-trimethyl-3-pentyl-6H-dibenzo[b,d]pyran-1-ol] | 1266 | about 14.5% | about 85% | about 79%
3 | CCCCCc1cc(O)c2c(c1)OC(C)(C)[C@@H]1CC=C(C)C[C@@H]21 [Δ^8-THC] | 1488 | – | – | –
4 | CCCCCc1cc(O)c2c(c1)OC(C)(C)[C@@H]1CCC(C(=O)O)=C[C@@H]21 [THCA, 9-carboxy-Δ^9-THC] | 8700 | – | – | about 540%
5 | CCCCCc1cc(O)c2c(c1)OC(C)(C)[C@@H]1CCC(C)=C[C@@H]21 [Δ^9-THC, Δ^9-tetrahydrocannabinol] | 1602 | – | – | –
